In PMC6315057, “Industrial scale high-throughput screening delivers multiple fast acting macrofilaricides” (Nature Communications, 2019):
≈ marks a conversion by molar mass, not a printed value. Like-named read-outs stand apart in the source and are kept apart here.

Tests used:
[1] = system: Wolbachia in C6/36 (wAlbB) cells; experiment: Secondary concentration response HTS (IC50) anti-Wolbachia screen in C6/36 (wAlbB) insect cells; assay type: cell-based, Wolbachia pipientis wAlbB (in Aedes albopictus C6/36 cells); conditions: 7-day incubation, 10-point concentration range
Protocol: Initially C6/36 (wAlbB) cells (insect cells stably infected with the Wolbachia target) from a single cryopreserved batch were recovered over 7 days prior to plating into 384-well assay ready plates (containing the test compounds), using a semi-automated process allowing for daily batches of ~150 plates, set up 4 days per week for 8 weeks. After a 7-day incubation period with the test compounds the plates were moved into the second fully automated stage (using the Agilent Technologies BioCel system) involving formaldehyde fixation, DNA staining of the insect cell nuclei (Hoechst) for toxicity analysis and antibody staining specific to the intracellular Wolbachia (wBmPAL primary antibody and far-red secondary antibody). In the final stage the fixed and stained plates from stage 2 were processed through automated data acquisition (High Res Biosolutions system, incorporating EnVision™ and acumen® plate readers). This industry standardised assay was then used to screen AstraZeneca’s full library of 1.3 million compounds within 10 weeks. In total this HTS included 30 × 3 week assays covering 3835 × 384-well plates. This primary HTS generated 20,255 hits defined as >80% reduction in Wolbachia with <60% toxicity to the host insect cell (eliminating false positives). This represents an overall hit rate of 1.56%. These compounds are depicted in chemical space in Fig. 2 (black points)[21].
The mosquito (Aedes albopictus) derived cell line C6/36 (ATCC® CRL 1660), stably infected with Wolbachia pipientis wAlbB (C6/36(wAlbB)), was maintained in Leibovitz L15 medium containing 2 mM L-glutamine, 1% nonessential amino acids, 2% tryptose phosphate broth and 20% heat-inactivated foetal bovine serum (FBS) at 26 °C[18]. This screen exclusively used cells from the large-scale cryopreserved batch produced as part of this campaign by culturing the cells at scale before cryopreservation (90% FBS and 10% DMSO). This produced a cell bank of 190 × 1 ml cryovials containing 3 × 10^7 cells per vial.
(§1) On day 0, a single cryovial was recovered and the cells washed before being transferred to a T225 cm^2 flask. After a 7-day recovery Wolbachia infection level (quality control (QC)) was checked by SYTO®11 DNA staining of both the host cell nuclei and intracellular Wolbachia. The end-point read out from the Operetta® high content imaging system (Perkin Elmer) was the percentage of cells infected with Wolbachia. This was obtained from cytoplasm texture analysis by the associated Harmony® software. Cells with a >50% of the population infected with Wolbachia were classed as having a good Wolbachia level and therefore used for screening through addition of 2000 cells per well into assay ready 384-well plates containing the test compounds. […] Each plate included on-board controls; vehicle/DMSO (total/maximum Wolbachia signal) or doxycycline 5 µM (null/minimum Wolbachia signal), resulting in single shot screening of 352 compounds per plate for the primary screen. […] QC plates were also created including full columns of the following controls; DMSO (total/max), 5 μM doxycycline (null/min), as well as 50 nM doxycycline (reference/medium Wolbachia signal). Daily batches contained ~150 compound plates in addition to the QC plates. Each compound plate was foil sealed before incubation for 7 days at 26 °C, 95% humidity and atmospheric air.
After 7 days of drug incubation, the plates were loaded into the fully automated BioCel system which performed the following additions; fixation and DNA staining (1.8% formaldehyde + 0.6 µg/ml Hoechst 33342, 20 min), permeabilisation (80 μl of PBS + 0.25% Triton-X 100, 30 min), blocking (PBS + 6% BSA, 40 min), overnight incubation in the Wolbachia-specific anti-wBmPAL primary antibody[34] […]

[2] = system: THP-1 cells; experiment: Mammalian cell viability counter-screen (CellTiter-Blue); assay type: cell-based, human; conditions: 48 h, read-out: HTS IC50 mammalian toxicity
Protocol: The human monocytic THP-1 cell line (ATCC® TIB-202) used for mammalian cytotoxicity evaluation was routinely cultured in roller bottles. Growth media consisted of RPMI 1640 supplemented with 10% FBS and 2 mM L-glutamine. Cells were maintained at 37 °C with 95% humidity in 5% CO2 in a shaking incubator.
All compounds selected for secondary IC50 screen were tested in parallel for mammalian cell viability using the CellTiter-Blue® Cell Viability Assay. THP1 cells were removed from culture and plated at 1 × 10^4 cells/well (40 µl) into 384-well assay ready plates and incubated at 37 °C, 5% CO2 for 48 h at 95% humidity. After the addition of CellTiter-Blue Viability reagent (8 µl of a 1:6 dilution) the assay plates were incubated for a further 2 h before fluorescence detected using a PerkinElmer EnVision™ plate reader.

[3] = system: Wolbachia in C6/36 (wAlbB) cells; experiment: Confirmatory re-assessment in the insect cell screen (cell assay EC50); assay type: cell-based, Wolbachia pipientis wAlbB (in Aedes albopictus C6/36 cells); conditions: insect cell screen, re-sourced or re-synthesised samples
Description: To further validate the hit molecules from these 9 clusters, samples were sourced either from the AstraZeneca compound inventory or through re-synthesis. All 18 samples were characterised by nuclear magnetic resonance (NMR) and mass spectroscopy to confirm their chemical structures and by HPLC/LCMS to establish their purity (Supplementary Table 5 and Supplementary Data 1). These samples were also subject to confirmatory re-assessment in both the insect cell screen and Mf assays for anti-Wolbachia potency alongside confirmation of DMPK properties (LogD7.4, aqueous solubility in pH 7.4 PBS, human microsomal turnover, rat hepatocyte turnover and human plasma protein binding) (Fig. 4, Supplementary Figure 1 and Supplementary Table 4).
as §1

[4] = system: Wolbachia within Brugia malayi Mf; experiment: B. malayi microfilarial (Mf) in vitro anti-Wolbachia assay (wsp:gst qPCR); assay type: cell-based; conditions: for EC50: B. malayi Mf, 6 days, read-out: Mf EC50
Protocol: The Mf were obtained by peritoneal lavage, using a catheter, of gerbils (Meriones unguiculatus) harbouring a patent infection of B. malayi. Mf were purified using a PD-10 desalting column (Fisher), centrifuged (311 RCF for 5 min at room temperature) before the addition of 8000 Mf/well of a 96-well plate (100 µl per well) in complete media consisting of RPMI supplemented with 10% FBS, 1% penicillin streptomycin and 1% amphotericin B. […] Each plate contained doxycycline (5 µM) and DMSO controls. After incubation at 37 °C for 6 days in 5% CO2, visual assessment of Mf motility was performed and scored from 0 to 4 per well (where 0 = no movement and 4 = highly motile). DNA extraction per sample was performed using the QIAmp DNA Mini Kit before quantitative PCR was performed to obtain the ratio of Wolbachia Surface Protein gene copy number (wsp) to Glutathione S-Transferase gene copy number (gst)[36]. The DNA was amplified using the primers as indicated in Supplementary Table 6.
The wsp:gst ratio data allowed for normalisation of the Wolbachia level to the Mf biomass for each well. The change in wsp:gst for each compound compared to the DMSO control was calculated before normalisation to the onboard doxycycline control to allow for inter-assay comparison.

[5] = Rat hepatocyte clearance; assay type: in vitro ADME
Description: (§2) The DMPK data used for triaging compounds, including LogD7.4, aqueous solubility, plasma protein binding, microsome and hepatocyte clearance measurements, were generated using the standard AstraZeneca UK high-throughput platform[37],[38].

[6] = Human microsome clearance; assay type: in vitro ADME; conditions: for microsomal CLint: human microsomes
Description: as §2

[7] = LogD7.4; assay type: physicochemical; conditions: pH 7.4
Description: as §2

[8] = Aqueous solubility in pH 7.4 PBS; assay type: physicochemical; conditions: for solubility: PBS pH 7.4, aqueous buffer, pH 7.4 PBS, read-out: Aqueous solubility in pH7.4 PBS
Description: as §2

[9] = Human plasma protein binding; assay type: in vitro ADME; conditions: for fraction unbound: plasma
Description: as §2

Cc1nccc(N2CCC(C(=O)N3CCCN(S(=O)(=O)c4ccc(Br)cc4)CC3)CC2)n1 [1B, (4-((4-bromophenyl)sulfonyl)-1,4-diazepan-1-yl)(1-(2-methylpyrimidin-4-yl)piperidin-4-yl)methanone]
IC50 ([1]; Wolbachia, 168 h): 111 nM
IC50 ([2]; Homo sapiens): > 30600 nM
EC50 ([3]; Wolbachia, C6/36): 268 nM
EC50 ([4]; Brugia malayi, 144 h): ~296 nM
Rat hepatocytes CLint [5]: 24.8 µl/min/1x106 cells
microsomal CLint ([6]; human): > 300 µL/min/mg
logD [7]: 2.7
solubility [8]: 217 µM (≈ 113 µg/mL)
fraction unbound [9]: 0.23

O=C(Cc1cccc(F)c1)Nc1[nH]ncc1-c1ccccc1 [2B, 2-(3-fluorophenyl)-N-(4-phenyl-1H-pyrazol-5-yl)acetamide]
IC50 ([1]; Wolbachia, 168 h): 4370 nM
IC50 ([2]; Homo sapiens): > 30600 nM
EC50 ([3]; Wolbachia, C6/36): 11300 nM
EC50 ([4]; Brugia malayi, 144 h): > 5000 nM
Rat hepatocytes CLint [5]: 39.5 µl/min/1x106 cells
microsomal CLint ([6]; human): 8.5 µL/min/mg
logD [7]: 2.5
solubility [8]: 172 µM (≈ 50.8 µg/mL)
fraction unbound [9]: 0.12

CN(CC1CCCC(=O)N1)c1cc(OCc2ccccc2)nc(-c2nccn2C)n1 (centres unmarked) [3B, 6-(((6-(benzyloxy)-2-(1-methyl-1H-imidazol-2-yl)pyrimidin-4-yl)(methyl)amino)methyl)piperidin-2-one]
IC50 ([1]; Wolbachia, 168 h): 510 nM
IC50 ([2]; Homo sapiens): > 30600 nM
EC50 ([3]; Wolbachia, C6/36): 645 nM
EC50 ([4]; Brugia malayi, 144 h): ~223 nM
Rat hepatocytes CLint [5]: 218.6 µl/min/1x106 cells
microsomal CLint ([6]; human): 35.5 µL/min/mg
logD [7]: 2.5
solubility [8]: > 1000 µM
fraction unbound [9]: 0.2

CNC(=O)c1csc(C2CCCN2Cc2ccc(C)c(F)c2)n1 (centres unmarked) [4B, 2-(1-(3-fluoro-4-methylbenzyl)pyrrolidin-2-yl)-N-methylthiazole-4-carboxamide]
IC50 ([1]; Wolbachia, 168 h): 228 nM
IC50 ([2]; Homo sapiens): > 30600 nM
EC50 ([3]; Wolbachia, C6/36): 66 nM
EC50 ([4]; Brugia malayi, 144 h): 1760 nM
Rat hepatocytes CLint [5]: > 300 µl/min/1x106 cells
microsomal CLint ([6]; human): 83.4 µL/min/mg
logD [7]: 3.7
solubility [8]: 397 µM (≈ 132 µg/mL)
fraction unbound [9]: 0.05

Cc1nc(C(=O)NC(C)c2cccc3ccccc23)c(NC(=O)Cc2ccccc2)[nH]1 (centres unmarked) [5B, 2-methyl-N-(1-(naphthalen-1-yl)ethyl)-5-(2-phenylacetamido)-1H-imidazole-4-carboxamide]
IC50 ([1]; Wolbachia, 168 h): 158 nM
IC50 ([2]; Homo sapiens): > 30600 nM
EC50 ([3]; Wolbachia, C6/36): 68 nM
EC50 ([4]; Brugia malayi, 144 h): 294 nM
Rat hepatocytes CLint [5]: 71.1 µl/min/1x106 cells
microsomal CLint ([6]; human): 101 µL/min/mg
logD [7]: 4.6
solubility [8]: 22 µM (≈ 9.07 µg/mL)
fraction unbound [9]: 0.011

O=C1NCCCc2nc(N3CCN(c4ccccc4F)CC3)sc21 [6A, 2-(4-(2-fluorophenyl)piperazin-1-yl)-5,6,7,8-tetrahydro-4H-thiazolo[5,4-c]azepin-4-one]
IC50 ([1]; Wolbachia, 168 h): 684 nM
IC50 ([2]; Homo sapiens): > 30600 nM
EC50 ([3]; Wolbachia, C6/36): 2560 nM
Mf in vitro potency (in words) [4]: lower potency than representatives 4A or 5A
EC50 ([4]; Brugia malayi, 144 h): 447 nM
Rat hepatocytes CLint [5]: 55.1 µl/min/1x106 cells
Human microsomal stability (in words) [6]: very good
microsomal CLint ([6]; human): 11.3 µL/min/mg
logD [7]: 2.9
Solubility (in words) [8]: acceptable
solubility [8]: 26 µM (≈ 9.01 µg/mL)
fraction unbound [9]: 0.088

Cc1csc(CN(C)c2nc3c(s2)C(=O)NCCC3)n1 [6B, 2-(methyl((4-methylthiazol-2-yl)methyl)amino)-5,6,7,8-tetrahydro-4H-thiazolo[5,4-c]azepin-4-one]
IC50 ([1]; Wolbachia, 168 h): 594 nM
IC50 ([2]; Homo sapiens): > 30600 nM
EC50 ([3]; Wolbachia, C6/36): 897 nM
EC50 ([4]; Brugia malayi, 144 h): > 5000 nM
Rat hepatocytes CLint [5]: 22.9 µl/min/1x106 cells
microsomal CLint ([6]; human): 3.5 µL/min/mg
logD [7]: 1.6
solubility [8]: 756 µM (≈ 233 µg/mL)
fraction unbound [9]: 0.4

COCc1ccc(C(=O)Nc2ccc(CNC(=O)c3ccnn3C)cc2C)nc1 [7B, 5-(methoxymethyl)-N-(2-methyl-4-((1-methyl-1H-pyrazole-5-carboxamido)methyl)phenyl) picolinamide]
IC50 [1]: 2480 nM
IC50 [2]: > 30600 nM
EC50 [3]: 3070 nM
EC50 [4]: 2220 nM
Rat hepatocytes CLint [5]: 25.0 µl/min/1x106 cells
Human microsome CLint ([6]; human, microsomes): 40.7 µL/min/mg
LogD 7.4 [7]: 2.3
Human plasma protein binding [9]: 99.5%
